From patent US5776935A, “Pyrido-phtalazin diones and their use against neurological disorders associated with excitotoxicity and malfunctioning of glutamatergic neurotransmission” (Merz & Co. GmbH & Co., priority 1996, dated 1998)
Where two headings read alike, the source gives them in different places.

Columns and labels:
[1] = system: AMPA; assay: Microelectrophoretic application of AMPA to spinal neurones in vivo; details: i.v., responses of single rat spinal neurones
Protocol: (§1) The ability of these glycineB antagonists to act as NMDA receptor antagonists in vivo was assessed using i.v. administration against responses of single neurones in the rat spinal cord to microelectrophoretic application of AMPA and NMDA.

[2] = target: T1, NMDA receptor (Mus musculus, UniProt P35438); assay: Maximal electroshock (MES)-induced tonic convulsions; type: in vivo; details: i.p.; for ED50: mouse, ip, 0.25 h, read-out: MES ID50
T1 construct: from tissue; host or cells: living mice (albino Swiss males for NMDA and PTZ tests, NMR females for MES)
Protocol: (§2) To assess NMDA receptor antagonistic properties of the tested agents by assessing anticonvulsive effects. Additionally the role of organic acid transporters in the elimination from the brain of tested agents was assessed by using an inhibitor, Probenicid, on the duration of anticonvulsive activity.
(§3) Male albino Swiss mice (19-21 g) housed 10-15 per cage were used for the NMDA lethality test (Leander et al., 1988). For pentylenetetrazol (PTZ)-induced convulsions male albino Swiss mice (25-34 g.) housed 40 per cage (58×38×20 cm) were used while in the maximal electroshock (MES) and motor impairment tests NMR female mice (18-28 g) housed 5 per cage were employed. All animals were kept with water and food ad libittum under a 12-h light-dark cycle (light on at 6 a.m.), and at a controlled temperature (20°±0.5° C.). All experiments were performed between 10 a.m. and 5 p.m. Tested agents were injected 15 min. i.p before the induction of convulsions if not stated otherwise (see below). Mrz 2/502 was dissolved in saline added with NaOH. Most other agents were dissolved in the following solution: 0.606 g Tris; 5.0 g. glucose; 0.5 g. Tween 80; and 95 ml water. The choline and tetramethylammonium salts were dissolved in distilled water.
MES (100 Hz, 0.5 sec shock duration, 50 mA shock intensity, 0.9 ms impulse duration, Ugo Basile) was applied through corneal electrodes. The presence of tonic convulsions was scored (tonic extension of hind paws with minimum angle to the body of 90°). In an additional experiment mice were injected with Probenicid (200 mg/kg) 30 min before administration of the tested agents to assess the role of organic acid transport in elimination (duration of action). The aim was to obtain ED50 s for all parameters scored using the Litchfield Wilcoxon (1949) test for quantal dose responses.

[3] = target: T2, NMDA receptor (Rattus norvegicus, UniProt P35439); assay: Patch clamp, inward currents to NMDA in cultured superior colliculus neurones; type: cell-based; details: for IC50 / IC50 against inward currents to NMDA: NMDA 200 μM; for voltage-dependence of effect: NMDA currents; for Kb: read-out: Kb (Cheng-Prusoff relationship)
T2 construct: endogenous in cells
Protocol: Cells were mechanically dissociated in 0.05% DNAase / 0.3% ovomucoid (Sigma) following a 15 minute pre-incubation with 0.66% trypsin / 0.1% DNAase (Sigma). The dissociated cells were then centrifuged at 18G for 10 minutes, resuspended in minimum essential medium (Gibco) and plated at a density of 200,000 cells cm onto poly-L-lysine (Sigma)-precoated plastic petri dishes (Falcon). The cells were nourished with NaHCO3 /HEPES-buffered minimum essential medium supplemented with 5% foetal calf serum and 5% horse serum (Gibco) and incubated at 37° C. with 5%CO2 at 95% humidity. The medium was exchanged completely following inhibition of further glial mitosis with cytosine-β-D-arabinofuranoside (20 μM Sigma) after about 7 days in vitro. Thereafter the medium was exchanged partially twice weekly. […] Moreover, the relatively small neurones (soma 15-20 μm .phi.) are ideally suited to minimise problems of buffered diffusion for concentration clamp experiments.
Patch clamp recordings were made from these neurones with polished glass electrodes (4-6 m.OMEGA.) in the whole cell mode at room temperature (20°-22° C.) with the aid of an EPC-7 amplifier (List). Test substances were applied by switching channels of a custom made fast superfusion system with a common outflow (10-20 ms exchange times). The contents of the intracellular solution were as follows (mM): CsCl (120), TEACl (20), EGTA (10), MgCl2 (1), CaCl2 (0.2), glucose (10), ATP (2), cAMP (0.25); pH was adjusted to 7.3 with CsOH or HCl. The extracellular solutions had the following basic composition (mM): NaCl (140), KCl (3), CaCl2 (0.2), glucose (10), HEPES (10), sucrose (4.5), tetrodotoxin (TTX 3*10-4). For most experiments glycine (1 μM) was present in all solutions. Experiments to test the glycine-dependence of the tricyclic "pyrido-phtalazin diones" were performed in the continuous presence of increasing concentrations of glycine (1-10 μM).
This effect was mediated at the glycineB site as evidenced by the parallel shift in the concentration-response curves in the presence of increasing glycine concentrations. Thus the Kbs of Mrz 2/502 as assessed according to the Cheng-Prusoff relationship were similar in glycine 1, 3 and 10 μM (80, 124 and 118 nM respectively). […] Choline derivatives had similar potencies to the free acids in vitro (Table14b).

[4] = target: T2, NMDA receptor; assay: Microelectrophoretic application of NMDA to spinal neurones in vivo; details: i.v., responses of single rat spinal neurones
Protocol: as §1

[5] = target: T1, NMDA receptor; assay: NMDA-induced convulsions / lethality test; type: in vivo; details: ip, 0.25 h, i.p., 15 min before induction, read-out: NMDA ID50
Protocol: as §2, §3
In the NMDA-induced convulsions test in mice, a dose-response relationship for NMDA was first performed to determine the ED97 dose which was then used for testing of antagonistic properties. After injection of the ED97 dose of NMDA the animals were placed in a small cage (20×28×14 cm) and observed for 20 min. Death preceded by clonic convulsions and by tonic seizures was the pharmacological end-point.

[6] = glycine 1 μM, peak currents, read-out: Peak NMDA IC50
[7] = glycine 1 μM, plateau (steady-state) currents, read-out: Plateau NMDA IC50

In the case of O=c1[nH][nH]c(=O)c2nc3ccc(Cl)cc3cc12 [Mrz 2/501], the “Microelectrophoretic AMPA ID50” value [1] is reported as greater than 16.0 mg/kg, the ED50 ([2]; 15 min before induction) is reported as greater than 100 mg/kg and the IC50 [3, 6] is reported as 2300 nM. For the same molecule, the IC50 [3, 7] was 700 nM, the voltage-dependence of effect [3] was “not voltage-dependent” and the “Microelectrophoretic NMDA ID50” value [4] was greater than 16.0 mg/kg. It also gave an ED50 [5] greater than 100 mg/kg.
With O=c1[nH]nc(O)c2c1cc1cc(Br)ccc1[n+]2[O-] [Mrz 2/514, 8-bromo-4-hydroxy-1-oxo-1,2-dihydropyridazino[4,5-b]-quinoline 5-oxide] the “activity in the MES test” value [2] was “effective”, the ED50 ([2]; 15 min before induction) was 20.2 mg/kg and the “IC50 against inward currents to NMDA” value [3] was “most potent”. The IC50 [3, 6] was 500 nM, the IC50 [3, 7] was 200 nM and the ED50 [5] was 99 mg/kg.
For O=c1[nH]nc(O)c2c1cc1cc(F)ccc1[n+]2[O-] [Mrz 2/516, 8-fluoro-4-hydroxy-1-oxo-1,2-dihydropyridazino[4,5-b]-quinoline 5-oxide], the “Microelectrophoretic AMPA ID50” value ([1]; listed as 516) was 3.6 mg/kg, the “activity in the MES test” value [2] was “effective” and the ED50 ([2]; 15 min before induction) was 16.6 mg/kg. The IC50 [3, 6] was 6300 nM, the IC50 [3, 7] was 1600 nM and the “Microelectrophoretic NMDA ID50” value [4] was 1.8 mg/kg. The “Microelectrophoretic NMDA ID50” value ([4]; listed as 516) was 1.8 mg/kg and the ED50 [5] was 40 mg/kg.
O=c1[nH][nH]c(=O)c2nc3ccc(F)cc3cc12 [Mrz 2/519] was tested, and the “Microelectrophoretic AMPA ID50” value [1] was greater than 16.0 mg/kg, the ED50 ([2]; 15 min before induction) was greater than 60 mg/kg and the IC50 [3, 6] was 18000 nM. For the same molecule, the IC50 [3, 7] was 5800 nM, the “Microelectrophoretic NMDA ID50” value [4] was greater than 16.0 mg/kg and the ED50 [5] was greater than 100 mg/kg.
In the case of O=c1[nH]nc(O)c2c1cc1cc(Cl)ccc1[n+]2[O-] [Mrz 2/502, 8-chloro-4-hydroxy-1-oxo-1,2-dihydropyridazino[4,5-b]-quinoline 5-oxide], the “Microelectrophoretic AMPA ID50” value ([1]; listed as 502) is reported as 4.9 mg/kg, the “activity in the MES test” value [2] is reported as “effective” and the “MES ID50” value ([2]; 15 min before induction, listed as 502, 15 min) is reported as 47.6 mg/kg. For the same molecule, the “IC50 against inward currents to NMDA” value [3] was “most potent”, the IC50 [3, 6] was 800 nM and the IC50 [3, 7] was 300 nM. For the same molecule, the voltage-dependence of effect [3] was “not voltage-dependent”, the Kb ([3]; glycine 1 μM) was 80 nM and the Kb ([3]; glycine 3 μM) was 124 nM. For the same molecule, the Kb ([3]; glycine 10 μM) was 118 nM, the “Microelectrophoretic NMDA ID50” value [4] was 1.2 mg/kg and the “Microelectrophoretic NMDA ID50” value ([4]; listed as 502) was 1.2 mg/kg. The ED50 [5] was 26 mg/kg.
For O=c1[nH][nH]c(=O)c2nc3ccc(Br)cc3cc12 [Mrz 2/503], the ED50 ([2]; 15 min before induction) was greater than 100 mg/kg, the IC50 [3, 6] was 1700 nM and the IC50 [3, 7] was 600 nM. The ED50 [5] was greater than 100 mg/kg.
O=c1[nH][nH]c(=O)c2nc3cc(Cl)c(Cl)cc3cc12 [Mrz 2/515] gave an ED50 ([2]; 15 min before induction) greater than 100 mg/kg, an IC50 [3, 6] of 3700 nM and an IC50 [3, 7] of 900 nM. For the same molecule, the ED50 [5] was 98 mg/kg.
